In paper PMC12677607, “Identification of a Pair of Linear or Cyclic Naturally Inspired Bifunctional Lipopeptide Antibiotics That Overcome Antimicrobial Resistance” (Advanced Science, 2025):
Bridge positions count the residues as written; N and C are the ends. Square brackets hold non-standard residues; d marks the D form. Peptide text beside a SMILES is read from it. * marks the point of attachment. Myristoyl = CCCCCCCCCCCCCC(=O)*; Orn = NCCC[C@H](N)C(=O)O; Dab = NCC[C@H](N)C(=O)O; Dap = NC[C@H](N)C(=O)O

What was measured:
[1] = test system: Candida albicans ATCC 10231; assay: MIC assay (YPD broth); type: cell-based; conditions: ATCC 10231, 16 h
Description: (§1) All MIC assays were performed two independent times (n = 2) in 96‐well plates using a broth micro‐dilution method. The lowest concentration of that inhibited visible microbial growth was recorded as the MIC value.
(§2) For fungal strains, overnight cultures were diluted 2000‐fold in YPD broth. 100 µL of diluted cells was mixed with 100 µL of YPD broth containing each peptide ranging from […] 64 to 0.125 µg mL^−1 at 2‐fold serial dilutions.

HeLa cells = assay: Cytotoxicity assay (CCK-8); type: cell-based, human; conditions: 48 h
Description: The cytotoxicity of each synAQU peptide was assessed using a cell counting kit‐8 (CCK‐8) assay. HeLa cells were first seeded in a 96‐well flat‐bottom microtiter plate with a density of ∼5000 cells per well and incubated in the DMEM medium supplemented with 10% FBS at 37 °C with 5% CO2 for 24 h. […] All cytotoxicity experiments were done in triplicate (n = 3) and repeated two independent times (n = 2).

[2] = test system: four Gram-negative bacteria, four Gram-positive bacteria, and one fungal pathogen; assay: Initial antimicrobial assay of 17 synAQUs; type: cell-based; conditions: MIC up to 64 µg mL^−1, Figure 3a
Description: as §1
(§3) For most of bacterial strains, overnight cultures were diluted 5000‐fold in LB broth. For E. faecium and S. aureus, overnight cultures were diluted 1000‐ and 10000‐fold in LB broth, respectively. 100 µL of diluted cells was mixed with 100 µL of LB broth containing each peptide ranging from 64 to 0.125 µg mL^−1 at 2‐fold serial dilutions.
as §2

[3] = test system: Streptococcus pyogenes ATCC 19615; assay: microbe, parasite or virus in culture; type: cell-based; conditions: ATCC 19615, 16 h
Description: as §1, §3

[4] = test system: Staphylococcus aureus USA300; assay: microbe, parasite or virus in culture; type: cell-based; conditions: USA300, 16 h
Description: as §1, §3

[5] = test system: Klebsiella pneumoniae CRKP 5452; assay: microbe, parasite or virus in culture; type: cell-based; conditions: CRKP 5452, 16 h
Description: as §1, §3

[6] = test system: Acinetobacter baumannii 1104008; assay: microbe, parasite or virus in culture; type: cell-based; conditions: 1104008, 16 h
Description: as §1, §3

Compound | MIC (μg/mL) C. albicans ATCC 10231 [1] [µg/mL] | MIC (μg/mL) Hela (HeLa cells) [µg/mL] | activity against all nine tested strains [2] | MIC (μg/mL) S. pyogenes ATCC 19615 [3] [µg/mL] | MIC (μg/mL) S. aureus USA300 [4] [µg/mL] | MIC (μg/mL) K. pneumoniae CRKP 5452 [5] [µg/mL] | MIC (μg/mL) A. baumannii 1104008 [6] [µg/mL]
CCCCCCCCCCCCCC(=O)N[C@H](C)C(=O)N[C@H](C)C(=O)N[C@H](Cc1ccccc1)C(=O)N[C@H](C(=O)N[C@@H](CCCNC(=N)N)C(=O)O)[C@@H](C)O [synAQU1-L] (Myristoyl-[dA][dA][dF]TR-OH) | > 64 | > 64 | not active | > 64 | > 64 | > 64 | > 64
CCCCCCCCCCCCCC(=O)N[C@@H](CCCCN)C(=O)N[C@@H](CCCNC(=N)N)C(=O)N[C@@H](CC(C)C)C(=O)N[C@@H](C)C(=O)N[C@@H](CC(C)C)C(=O)N[C@@H]1C(=O)N[C@@H](CC(=O)O)C(=O)N[C@@H](CC(=O)O)C(=O)N[C@@H](C(C)C)C(=O)N[C@@H](CC(N)=O)C(=O)N[C@@H](C(C)C)C(=O)N[C@H](Cc2ccccc2)C(=O)N[C@@H](CC(N)=O)C(=O)O[C@@H]1C [synAQU7-C6] (Myristoyl-KRLALTDDVNV[dF]N; ester 6-C) | > 64 | > 64 | not active | > 64 | > 64 | > 64 | > 64
CCCCCCCCCCCCCC(=O)N[C@@H](CN)C(=O)N[C@@H]1C(=O)N[C@@H](CC(C)C)C(=O)N[C@@H](CO)C(=O)N[C@@H](CCN)C(=O)N[C@@H](CN)C(=O)N[C@@H](Cc2ccccc2)C(=O)N[C@@H]([C@@H](C)CC)C(=O)N[C@@H](CCCN)C(=O)N[C@@H](CC(N)=O)C(=O)N[C@@H](Cc2ccccc2)C(=O)O[C@@H]1C [synAQU5-C2] (Myristoyl-[Dap]TLS[Dab][Dap]FI[Orn]NF; ester 2-C) | > 64 | > 64 | not active | > 64 | > 64 | > 64 | > 64
